Measured values from US20240139149A1, “THERAPEUTIC USES OF UROLITHIN DERIVATIVES” (Vandria SA, priority 2022, published 2024).

Key:
[1] = tested on: AOM-induced colon tumors; test: AOM-induced colorectal tumorigenesis, UA-containing diet; format: in vivo, mouse; conditions: FVB mice
Excerpt: Urolithin A containing diet (2.28 g/kg) or AIN− 93G control food (Brogaarden) were given ad libitum once introduced for experimental purpose at the indicated time. Animal experiments were approved by the Regierungsprasidium Darmstadt under animal application numbers F123/1009; F123/1062 and F123/2008.
Colorectal tumors were induced by 6 consecutive weekly injections of AOM on mice fed with food containing 2.28 g/kg Urolithin A (UA diet) or with control food. The diet was introduced one-week prior the first AOM injection and maintained until the end of the experiment at ˜20-24 weeks. The colons were collected for subsequent histological analysis as described below. For subcutaneous colorectal cancers, APTK organoids were mechanistically disrupted, incubated with Accutase to generate a single cell suspension and reconstituted in PBS 20% Matrigel (Corning) for subcutaneous transplantation. Tumor sizes were measured at the indicated time after transplantation and tumor volume quantified as ½(width2×length). Urolithin A or control food regiment were initiated either one week before tumor challenge or 11 days after tumor development. Therapeutic diets were maintained throughout the experiment unless indicated otherwise. […] CD8-depleting antibodies (InvivoMab anti-mouse CD8; Hoelzel; BE0061) or isotype controls (InvivoMab rat IgG2b isotyp; Hoelzel; BE0090) were applied every three days, starting at five days after tumor initiation. To study combination efficacy with immunotherapy, mice were injected i.p. with 100 μl nVivoMAb anti-mouse PD-1 (Hoelzel; BE0146) and InVivoMab mouse IgG2b isotype control (Hoelzel; BE0086) every 2 days, starting three days after tumor injection.
For histological analysis of colon tissue, colons were paraffin embedded using the “swiss roll” technique and serially sectioned at […]. […] AOM tumor lesion size and incidence were quantified using Aperio ImageScope software.

[2] = tested on: APTK organoids; test: APTK tumor organoids treated with UA (lysosomes, mitochondria, MHC-I by flow cytometry); format: cell-based, mouse; conditions: increasing concentrations of UA
Method: APTK colorectal organoids which harbor mutations for Apc, Trp53 and Tgfbr2 as well as expression of oncogenic KraSG12D were established and maintained as previously described (Nicolas et al., 2022; Varga et al., 2020). APTK organoids were seeded in 6 wells suspension plates: 6 droplets of 50 l Matrigel (Corning) per well were used. To generate OVA-APTK, colon organoids were isolated from unchallenged OVA mice (The Jackson Laboratory) as previously described (Nicolas et al., 2022). Liposomes CRISPR/Cas9 technology-based transfection was used for targeted knockout of the following mutated colorectal cancer-related genes: Apc (gRNA: […])(SEQ ID NO:1), Trp53 gRNA: […]) (SEQ ID NO:2), and Tgfbr2 (gRNA: […]) (SEQ ID NO:3) as previously described (Schwank and Clevers, 2016). Cas9 plasmid (Addgene; #41815) was used along gRNA plasmids generated from addgene #41819 plasmid by cloning the gRNA of interest instead of GFP targeting gRNA. Firstly, Apc knockout (A) organoids were functionally selected by the withdrawal of R-spondin from the culture medium. Secondly, Apc Trp53 (AT) knockout organoids were selected for Trp53 loss with 5 μM of MDM2 inhibitor (Nutlin-3) (Biomole, cat no. 10004372). Thirdly, Apc Trp53 Tgfbr2 (APT) knockout organoids were selected with […] recombinant TGFβ (R&D Systems; 7666-MB). Finally, KrasG12D gain of function mutation was obtained by overexpressing the active murine version of Kras gene (cloned in house based on Addgene plasmid #111164, Map-S5) in APT organoids. Apc, Trp53, Tgfbr2 and KrasG12D (APTK) OVA organoids were selected by 2 μg/mL puromycin (Merck; 58-58-2) and withdrawal of EGF and noggin from the culture medium. In order to study the effect of UA on lysosome formation, mitochondria reduction as well as antigen presentation, organoids were treated with 25-50 μM UA for 24-48 h. Organoids were subsequently stained with a MHC-I antibody (AF6-88.5; 116516; BioLegend), Mitotracker Deep Red (250 nm; ThermoFisher) and Lysotracker Red DND-99 (75 nM; ThermoFisher).

[3] = tested on: CD19-CAR T cells / Nalm-6 cells; test: CD19-CAR T cell generation in presence of UA and Nalm-6 killing; format: cell-based, human
[4] = tested on: CEA-CAR T cells / CEA-expressing human CRC organoids; test: CEA-CAR T cells exposed to UA and killing of human CRC organoids; format: cell-based
[5] = tested on: mouse T lymphocytes; test: Proportion of mouse T memory stem cells (Tscm); format: cell-based; conditions: 2 μM, 72 h
Method: T cells were isolated and stimulated as described in Example 14.
Tscm represent a subset of minimally differentiated T cells, which share a CD44^loCD62L^hi phenotype with naïve T cells, but are phenotypically distinct by expressing high levels of Sca1 (Gattinoni et al., 2009). Tscm are therefore identified as CD44^−CD62L^+Sca1^hi cells.
Flow cytometry and analysis was performed as described in Example 14.

[6] = AOM weekly for six weeks, oral UA diet 2.28 g/kg vs control diet

Structure (SMILES)	tumor incidence [1, 6]	tumor size [1, 6]	infiltration of CD3+ T cells into the colonic mucosa ([1]; AOM, oral UA diet 2.28 g/kg)	MitoTracker staining [2]	formation of lysosomes (lysotracker) [2]	MHC-I expression ([2]; 48 hours)	CAR gene delivery into CD8+ cells [3]	CD19 CAR-T cell mediated killing of NALM-6 leukemia cells ([3]; 24 h co-culture)	markers of exhaustion (Tim3HiPD-1Hi CD8+CAR+) ([3]; three days after transduction)	CAR expressing TSCM cells as share of CD8+ cells ([3]; three days post transduction, upon UA exposure)	killing of CEA-expressing human CRC organoids ([4]; 72 h co-culture)	CAR TSCM formation in CEA-specific CAR-T cells ([4]; UA applied to previously frozen CAR-T cells)	increase in the percentage of Tscm in CD8+ cells vs DMSO [5] [%]	percentage of Tscm in CD8+ cells ([5]; DMSO 16.7%) [%]
O=c1oc2cc(O)ccc2c2ccc(O)cc12 [UA, Urolithin A]	significant decrease	significant decrease	increased infiltration	loss of MitoTracker staining	dose-dependent formation of lysosomes	marked upregulation	did not impair	did not have a negative impact	not affected	about 60%	comparable killing efficacy	strongly enhanced		
O=c1oc2cc(O)ccc2c2ccc(OC3CCOCC3)cc12 [compound 33, 3-hydroxy-8-((tetrahydro-2H-pyran-4-yl)oxy)-6H-benzo[c]chromen-6-one]													81	30.2
